In US12497365B2, “4-pyridinyl formamide compound or derivative thereof, preparation method therefor, herbicidal composition and use thereof” (Qingdao Kingagroot Chemical Compound Co., Ltd., priority 2019, dated 2025):

The compounds below were run on Abutilon theophrasti (assay: Weeding effect in post-emergence stage). Conditions: active ingredient 2000 g/ha, 3 weeks after application, fresh weight control rate.
Type: in vivo
Method in brief: (§1)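 Pot-grown weeds at the 2-3 leaf stage receive a tower spray of test compound at 2000, 1000, 500, 250 or 125 g/ha, formulated in acetone with Tween 80 and methyl oleate synergist. Fresh weight reduction is rated on an activity scale 3 weeks later.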

Structure (SMILES) | Weeding effect, activity level (growth control rate), Abutilon theophrasti
Cn1nnnc1NC(=O)c1ccnc(-c2ccc(Br)nc2)c1Cl [Compound 1-131] | 5 (Level 5: growth control rate is above 85%)
COc1ccc(-c2nccc(C(=O)Nc3nnnn3C)c2Cl)c(OC)c1 [Compound 1-105] | 5 (Level 5: growth control rate is above 85%)
O=C(Nc1ncco1)c1ccnc(-c2ccc(F)cc2)c1Cl [Compound 1-1607] | 5 (Level 5: growth control rate is above 85%)
Cn1cc(-c2nccc(C(=O)Nc3nnnn3C)c2Cl)cn1 [Compound 1-168] | 5 (Level 5: growth control rate is above 85%)
COc1cc(F)cc(-c2nccc(C(=O)Nc3nnnn3C)c2Cl)c1 [Compound 1-71] | 5 (Level 5: growth control rate is above 85%)
Cn1nnnc1NC(=O)c1ccnc(-c2cncnc2)c1Cl [Compound 1-156] | 5 (Level 5: growth control rate is above 85%)
Cn1nnnc1NC(=O)c1ccnc(-c2cccc(C(F)(F)F)c2)c1Cl [Compound 1-26] | 5 (Level 5: growth control rate is above 85%)
CCOc1ccc(-c2nccc(C(=O)Nc3nnnn3C)c2Cl)cn1 [Compound 1-144] | 5 (Level 5: growth control rate is above 85%)
CCOC(C)n1cc(-c2nccc(C(=O)Nc3nnnn3C)c2Cl)cn1 (centres unmarked) [Compound 1-176] | 5 (Level 5: growth control rate is above 85%)
Cn1nnnc1NC(=O)c1ccnc(-c2ccccc2-c2ccccc2)c1Cl [Compound 1-52] | 5 (Level 5: growth control rate is above 85%)
Cn1nnnc1NC(=O)c1ccnc(-c2cccc3cnccc23)c1Cl [Compound 1-114] | 5 (Level 5: growth control rate is above 85%)

Each compound was assayed on Amaranthus retroflexus L. (assay: Weeding effect in post-emergence stage). Conditions: active ingredient 2000 g/ha, 3 weeks after application, fresh weight control rate.
Type: in vivo
Method in brief: as §1

Structure (SMILES) | Weeding effect, activity level (growth control rate), Amaranthus retroflexus L.
Cn1nnnc1NC(=O)c1ccnc(-c2ccc(Br)nc2)c1Cl [Compound 1-131] | 5 (Level 5: growth control rate is above 85%)
COc1ccc(-c2nccc(C(=O)Nc3nnnn3C)c2Cl)c(OC)c1 [Compound 1-105] | 5 (Level 5: growth control rate is above 85%)
O=C(Nc1ncco1)c1ccnc(-c2ccc(F)cc2)c1Cl [Compound 1-1607] | 5 (Level 5: growth control rate is above 85%)
Cn1cc(-c2nccc(C(=O)Nc3nnnn3C)c2Cl)cn1 [Compound 1-168] | 5 (Level 5: growth control rate is above 85%)
COc1cc(F)cc(-c2nccc(C(=O)Nc3nnnn3C)c2Cl)c1 [Compound 1-71] | 5 (Level 5: growth control rate is above 85%)
Cn1nnnc1NC(=O)c1ccnc(-c2cncnc2)c1Cl [Compound 1-156] | 5 (Level 5: growth control rate is above 85%)
Cn1nnnc1NC(=O)c1ccnc(-c2cccc(C(F)(F)F)c2)c1Cl [Compound 1-26] | 5 (Level 5: growth control rate is above 85%)
CCOc1ccc(-c2nccc(C(=O)Nc3nnnn3C)c2Cl)cn1 [Compound 1-144] | 5 (Level 5: growth control rate is above 85%)
CCOC(C)n1cc(-c2nccc(C(=O)Nc3nnnn3C)c2Cl)cn1 (centres unmarked) [Compound 1-176] | 5 (Level 5: growth control rate is above 85%)
Cn1nnnc1NC(=O)c1ccnc(-c2ccccc2-c2ccccc2)c1Cl [Compound 1-52] | 5 (Level 5: growth control rate is above 85%)
Cn1nnnc1NC(=O)c1ccnc(-c2cccc3cnccc23)c1Cl [Compound 1-114] | 5 (Level 5: growth control rate is above 85%)

The compounds below were run on Chenopodium album (assay: Weeding effect in post-emergence stage). Conditions: active ingredient 2000 g/ha, 3 weeks after application, fresh weight control rate.
Type: in vivo
Method in brief: as §1

Structure (SMILES) | Weeding effect, activity level (growth control rate), Chenopodium album
Cn1nnnc1NC(=O)c1ccnc(-c2ccc(Br)nc2)c1Cl [Compound 1-131] | 5 (Level 5: growth control rate is above 85%)
COc1ccc(-c2nccc(C(=O)Nc3nnnn3C)c2Cl)c(OC)c1 [Compound 1-105] | 5 (Level 5: growth control rate is above 85%)
O=C(Nc1ncco1)c1ccnc(-c2ccc(F)cc2)c1Cl [Compound 1-1607] | 5 (Level 5: growth control rate is above 85%)
Cn1cc(-c2nccc(C(=O)Nc3nnnn3C)c2Cl)cn1 [Compound 1-168] | 5 (Level 5: growth control rate is above 85%)
COc1cc(F)cc(-c2nccc(C(=O)Nc3nnnn3C)c2Cl)c1 [Compound 1-71] | 5 (Level 5: growth control rate is above 85%)
Cn1nnnc1NC(=O)c1ccnc(-c2cncnc2)c1Cl [Compound 1-156] | 5 (Level 5: growth control rate is above 85%)
Cn1nnnc1NC(=O)c1ccnc(-c2cccc(C(F)(F)F)c2)c1Cl [Compound 1-26] | 5 (Level 5: growth control rate is above 85%)
CCOc1ccc(-c2nccc(C(=O)Nc3nnnn3C)c2Cl)cn1 [Compound 1-144] | 5 (Level 5: growth control rate is above 85%)
CCOC(C)n1cc(-c2nccc(C(=O)Nc3nnnn3C)c2Cl)cn1 (centres unmarked) [Compound 1-176] | 5 (Level 5: growth control rate is above 85%)
Cn1nnnc1NC(=O)c1ccnc(-c2ccccc2-c2ccccc2)c1Cl [Compound 1-52] | 5 (Level 5: growth control rate is above 85%)
Cn1nnnc1NC(=O)c1ccnc(-c2cccc3cnccc23)c1Cl [Compound 1-114] | 5 (Level 5: growth control rate is above 85%)

What follows are compounds tested on Descurainia sophia (assay: Weeding effect in post-emergence stage). Conditions: active ingredient 2000 g/ha, 3 weeks after application, fresh weight control rate.
Type: in vivo
Method in brief: as §1

Structure (SMILES) | Weeding effect, activity level (growth control rate), Descurainia sophia
Cn1nnnc1NC(=O)c1ccnc(-c2ccc(Br)nc2)c1Cl [Compound 1-131] | 5 (Level 5: growth control rate is above 85%)
COc1ccc(-c2nccc(C(=O)Nc3nnnn3C)c2Cl)c(OC)c1 [Compound 1-105] | 5 (Level 5: growth control rate is above 85%)
O=C(Nc1ncco1)c1ccnc(-c2ccc(F)cc2)c1Cl [Compound 1-1607] | 5 (Level 5: growth control rate is above 85%)
Cn1cc(-c2nccc(C(=O)Nc3nnnn3C)c2Cl)cn1 [Compound 1-168] | 5 (Level 5: growth control rate is above 85%)
COc1cc(F)cc(-c2nccc(C(=O)Nc3nnnn3C)c2Cl)c1 [Compound 1-71] | 5 (Level 5: growth control rate is above 85%)
Cn1nnnc1NC(=O)c1ccnc(-c2cncnc2)c1Cl [Compound 1-156] | 5 (Level 5: growth control rate is above 85%)
Cn1nnnc1NC(=O)c1ccnc(-c2cccc(C(F)(F)F)c2)c1Cl [Compound 1-26] | 5 (Level 5: growth control rate is above 85%)
CCOc1ccc(-c2nccc(C(=O)Nc3nnnn3C)c2Cl)cn1 [Compound 1-144] | 5 (Level 5: growth control rate is above 85%)
CCOC(C)n1cc(-c2nccc(C(=O)Nc3nnnn3C)c2Cl)cn1 (centres unmarked) [Compound 1-176] | 5 (Level 5: growth control rate is above 85%)
Cn1nnnc1NC(=O)c1ccnc(-c2ccccc2-c2ccccc2)c1Cl [Compound 1-52] | 5 (Level 5: growth control rate is above 85%)
Cn1nnnc1NC(=O)c1ccnc(-c2cccc3cnccc23)c1Cl [Compound 1-114] | 5 (Level 5: growth control rate is above 85%)
